This passage reports IC50 results from BindingDB's records for doi:10.7270/Q2PC30Z9 (Burnham Center For Chemical Genomics, 2012).

Molecules are shown by their SMILES.

By IC50 is commonly meant the concentration that gives 50% inhibition. A lower IC50 goes with inhibition by little substance.

The assay deals with 26S proteasome non-ATPase regulatory subunit 14 (Homo sapiens, UniProt O00487). The assay can be described thus: inhibition of proteasome subunit RPN11 – biochemical, fluorescence polarization, uHTS hits, confirmation (AID 602368). (In general: Polarisation of emitted light reports the rotation of a fluorescent probe.)
Sequence of 26S proteasome non-ATPase regulatory subunit 14 (O00487 whole entry): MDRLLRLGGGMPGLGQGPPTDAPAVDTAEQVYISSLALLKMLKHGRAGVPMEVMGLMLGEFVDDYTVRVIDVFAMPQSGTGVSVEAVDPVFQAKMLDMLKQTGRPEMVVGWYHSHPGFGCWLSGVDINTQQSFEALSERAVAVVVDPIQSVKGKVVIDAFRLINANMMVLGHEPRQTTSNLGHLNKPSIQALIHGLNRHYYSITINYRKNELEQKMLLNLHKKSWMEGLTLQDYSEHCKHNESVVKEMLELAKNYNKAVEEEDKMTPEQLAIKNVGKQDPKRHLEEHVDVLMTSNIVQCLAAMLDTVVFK
For `O=[N+]([O-])c1ccc(N=NCc2c[nH]c3ccccc23)cc1` [MLS000573812], the 50% inhibitory concentration (IC50) stood at 1.77 µM.

Take `CC(=O)C1C(=O)OC(=CC=Cc2ccccc2)C1=O` (stereo not given) [3-acetyl-5-cinnamylidene-4-hydroxy-2-furanone]: the IC50 amounted to 35.2 µM. In the case of `COC1=CC([N+](=O)[O-])=CC(/C=N/NC(=O)c2cc(-c3ccccc3)nc3ccccc23)C1=O` (stereo not given) it was 22.3 µM; in that of `COc1cc(C=c2[nH]c3n(c2=O)CCCCC=3)ccc1O` [SMR000149996], 14.8 µM; in that of `O=C1N=C(Nc2ccc(Cl)cc2Cl)SC1=Cc1c[nH]c2ccccc12`, 36.5 µM. In the case of `O=[N+]([O-])c1ccc(N=NCc2ccc[nH]2)cc1` [MLS000595102] it was 8.96 µM; in that of `CN(CCO)c1ccc(CN=Nc2ccc([N+](=O)[O-])cc2S(=O)(=O)Nc2ccccc2C(=O)O)cc1`, 37 µM; in that of `NS(=O)(=O)c1ccc(N=CCC(=O)c2ccc3ccccc3c2)cc1` [4-(3-Naphthalen-2-yl-3-oxo-propenylamino)-benzenesulfonamide], 28.6 µM. As for `CCCCCCCCCCCC1N=C(N)N=C(CCCO)C1C(=O)OC` (stereo not given) [SMR001565729], the figure is 19.9 µM; as for `O=c1c(Cl)c(N=NCc2ccc(Br)cc2)cnn1-c1ccccc1`, 21.2 µM.

For `C=c1[nH]c2ccc(C)cc2c1=Cc1c(N)n2oc(C)cc2nc1=O` [MLS000730959], the IC50 stood at 33.3 µM. `O=C1c2ccccc2SC1/C=N/c1cc([N+](=O)[O-])ccc1O` (stereo not given) [(2Z)-2-[[(5-nitro-2-oxidanyl-phenyl)amino]methylidene]-1-benzothiophen-3-one] gave an IC50 of 3.28 µM. On to `O=C(N/N=C/C1C=C(Cl)C=C([N+](=O)[O-])C1=O)c1ccccc1NS(=O)(=O)c1cccs1` (stereo not given) [SMR000364876], for which the IC50 worked out at 10.4 µM. This IC50 lies about 3.2-fold higher than the previous one. `CSc1nsc(CC=Nc2ccc(C(=O)O)cc2)c1C#N` [4-({2-[4-cyano-3-(methylsulfanyl)-5-isothiazolyl]vinyl}amino)benzenecarboxylic acid] returned a half-inhibitory concentration (IC50) of 24.8 µM. Consider `CC(c1sc(S)nc1O)c1sc(S)nc1O` [5-[1-(4-oxidanylidene-2-sulfanylidene-1,3-thiazolidin-5-yl)ethyl]-2-sulfanylidene-1,3-thiazolidin-4-one], for which the IC50 came to 45.4 µM. As for `O=C1C=CC([N+](=O)[O-])=CC1C=NN=C1NS(=O)(=O)c2ccccc21` (stereo not given), the figure is 34.9 µM; as for `CC[n+]1c(CC=Nc2ccccc2)oc2ccc(OC)cc21`, 23.2 µM; as for `COC1=CC([N+](=O)[O-])=CC(/C=N/NC(=O)c2cncc(Br)c2)C1=O` (stereo not given) [5-bromo-N'-[(E)-(5-methoxy-3-nitro-6-oxo-1-cyclohexa-2,4-dienylidene)methyl]-3-pyridinecarbohydrazide], 49.5 µM. `C=c1[nH]n(-c2nnc(C)c(=O)[nH]2)c(=O)c1=Cc1ccc(N(CC)CC)cc1` [3-{4-[1-(4-Diethylamino-phenyl)-meth-(Z)-ylidene]-3-methyl-5-oxo-4,5-dihydro-pyrazol-1-yl}-6-methyl-4H -[1,2,4]triazin-5-one] returned an IC50 of 49.4 µM. This IC50 and that of the compound before are within 1.5-fold of each other. Consider `CCOC(=O)C1C(=O)C(=Cc2ccc(-c3ccccc3C(=O)O)o2)SC1=Nc1ccc(OC)cc1` (stereo not given), for which the IC50 was determined as 17.8 µM. This IC50 is about 2.8-fold lower than that of the compound before.

In turn, `CCN(CC)CCOC(=O)c1ccc(N=CC(C#N)c2nc(-c3ccc4c(c3)OCO4)cs2)cc1` (stereo not given) [2-(diethylamino)ethyl 4-[[(Z)-2-[4-(1,3-benzodioxol-5-yl)-1,3-thiazol-2-yl]-2-cyano-ethenyl]amino]benzoate] gave an IC50 of 31.4 µM.

For the compound `COC1=CC(=Cc2c(C)[nH]n(-c3cccc(Br)c3)c2=O)C=C(OC)C1=O`, the IC50 amounted to 23.1 µM.

The compound `O=C(N/N=C/C1C=C([N+](=O)[O-])C=CC1=O)c1cc(-c2ccccc2)nc2ccccc12` (stereo not given) [N'-[(E)-(3-nitro-6-oxo-1-cyclohexa-2,4-dienylidene)methyl]-2-phenyl-4-quinolinecarbohydrazide] registered an IC50 of 14.8 µM. In the case of `O=[N+]([O-])c1ccc(N=NCc2cccn2-c2ccccc2)nc1` [SMR000161089] it was 23.5 µM; in that of `Cc1[nH]n(-c2ccccc2)c(=O)c1C=C1NC(=S)NC1=O` [5-methyl-4-[(Z)-(5-oxo-2-sulfanylideneimidazolidin-4-ylidene)methyl]-2-phenyl-4H-pyrazol-3-one], 32.4 µM. In the case of `Cc1[nH]c2ccccc2c1/C=C1\N=C(c2ccccc2)OC1=O` [(4Z)-4-[(2-methyl-1H-indol-3-yl)methylidene]-2-phenyl-5-oxazolone] it was 4.18 µM.

Compound `Cc1cc(=O)[nH]c(N=NCc2c(O)n(-c3ccccc3)c(=O)c3ccccc23)n1` [SMR000221270] returned a concentration for half-maximal inhibition (IC50) of 18.4 µM. In turn, `C=C(C=C(C)c1sc(S)nc1O)c1sc(S)nc1O` [MLS000723803] returned an IC50 of 43.6 µM. Regarding `C=CCN1C(=O)C(/C=N/c2cccc([N+](=O)[O-])c2)C(=O)N(CCCC)C1=O` (stereo not given) [MLS000543529], half-maximal inhibition (IC50) required 34 µM. With `Oc1csc(=S)n1N=Cc1ccc(Cl)s1` [3-[(5-chlorothiophen-2-yl)methylideneamino]-2-sulfanylidene-1,3-thiazolidin-4-one], the IC50 worked out at 59.4 µM. In the case of `CC1(C)CC(=O)C(=CNCC2CCN(C(=O)Cc3ccccc3)CC2)C(=O)C1` [5,5-dimethyl-2-[[[1-(2-phenylacetyl)piperidin-4-yl]methylamino]methylidene]cyclohexane-1,3-dione], the IC50 was more than 100 µM. With `COc1cc(C=CC(=O)C2C(=O)NC(=O)N(CCc3ccccc3)C2=O)ccc1O` (stereo not given) [SMR000221203], 29.2 µM corresponded to half-maximal inhibition (IC50). As for `COc1cc2c3c(c1)C(C)=CC(C)(C)N3C(=O)C2=O` [MLS000688351], the figure is 8.23 µM.

`CCN(CC)CCOC(=O)c1ccc(N=CC(C#N)c2nc(-c3ccc(OC)c(OC)c3)cs2)cc1` (stereo not given) [SMR000434079] had an IC50 of 23.2 µM. In the case of `CC1=NC(=O)NC(c2ccc(N3CCOCC3)cc2)C1C(=O)c1ccccc1` (stereo not given) [5-benzoyl-6-methyl-4-[4-(4-morpholinyl)phenyl]-3,4-dihydro-1H-pyrimidin-2-one] it was 17.1 µM.
